Results as given in patent US20250170200A1, “COMPOSITION COMPRISING COFFEE EXTRACT FOR SUPPRESSING POSTPRANDIAL BLOOD SUGAR RISE” (PYXIS INC., priority 2022, published 2025).
Entries after “also recorded” stand apart in the source; their conditions may differ.

Experiments:
[1] = system: rat intestinal α-glucosidase; assay: Rat intestinal α-glucosidase inhibition assay; type: biochemical; conditions: in words, FIG. 1 and FIG. 2
Procedure: • Enzyme: rat small intestinal acetone powder • Substrate: PNP-glycoside (pNPG, p-Nitrophenyl α-Dglucopyranoside) 150 mg of rat small intestine acetone powder was added to 9 ml of 0.1 M sodium phosphate buffer (pH 6.9; including 0.9% sodium chloride), ultrasonicated 12 times in an ice water bath for 30 seconds, and then centrifuged at 13,000 rpm and 4° C. for 3 minutes. After centrifugation, a supernatant was collected and used in rat intestinal α-glucosidase inhibition assay. 100 μl of a rat α-glucosidase solution and 50 μl of a sample solution were added and reacted at 37° C. for 10 minutes, and then 50 μl of 5 mM pNPG solution was added thereto to react the mixture at 37° C. for 10 minutes. After completion of the reaction, inhibitory activity against rat intestinal α-glucosidase was analyzed by measuring absorbance at 405 nm by using an ELISA reader. The sample solution used in the experiment was prepared as follows. The hot-water extract was centrifuged (8000 rpm, 30 min), the supernatant was filtered through a filter paper (90 mm/Whatman™), and the filtrate was concentrated to 60 to 150 ml and freeze-dried to produce extract powder. 100 mg of powder was mixed with 1 L of water to prepare a sample solution.

[2] = target: T1, porcine pancreatic α-amylase (Sus scrofa, UniProt P00690); assay: Porcine pancreatic α-amylase inhibition assay; type: biochemical; conditions: at a concentration of 25 mM/ml, FIG. 4
T1 sequence (P00690 16-511): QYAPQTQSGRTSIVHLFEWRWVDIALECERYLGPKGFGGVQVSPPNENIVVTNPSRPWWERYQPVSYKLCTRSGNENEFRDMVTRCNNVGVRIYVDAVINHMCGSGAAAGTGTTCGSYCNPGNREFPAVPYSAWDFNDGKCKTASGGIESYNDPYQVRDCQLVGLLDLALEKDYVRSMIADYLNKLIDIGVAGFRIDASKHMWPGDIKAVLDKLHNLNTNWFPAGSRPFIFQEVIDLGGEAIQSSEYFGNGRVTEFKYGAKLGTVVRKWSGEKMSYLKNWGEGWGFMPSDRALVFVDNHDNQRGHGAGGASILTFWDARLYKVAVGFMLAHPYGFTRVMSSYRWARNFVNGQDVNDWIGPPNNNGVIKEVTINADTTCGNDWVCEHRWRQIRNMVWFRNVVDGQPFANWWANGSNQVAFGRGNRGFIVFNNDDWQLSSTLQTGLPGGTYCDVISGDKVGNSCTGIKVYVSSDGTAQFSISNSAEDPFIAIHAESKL
Procedure: • Enzyme: porcine pancreatic α-amylase • Substrate: 1% starch solution in 0.02 M sodium phosphate buffer (pH 6.9) • Coloring Reagent: 3,5-dinitrosalicylic acid solution (DNS) in 2 M NaOH with 30% sodium potassium tartrate tetrahydrate
200 μl of a sample solution was added to 300 μl of a porcine pancreatic α-amylase solution having a concentration of 10 U, which is dissolved in a 0.02 M sodium phosphate buffer (pH 6.9; including 0.006 M sodium chloride), and incubated at 25° C. for 10 minutes.
500 μl of a 1% starch solution, which was pre-cultured at 25° C. for 10 minutes, was added to the solution, and the mixture was reacted at 25° C. for 10 minutes.
1 ml of a 1% DNS solution dissolved in 30% Rochelle salt was added and treated in boiling water bath for 5 minutes and cooled to room temperature, and 10 ml of distilled water was added to the resultant.
The absorbance of a reaction solution of the DNS solution and sugar decomposed from the substrate by α-amylase was measured at 540 nm by using an ELISA reader.

SD rat [3] = assay: Postprandial blood sugar rise suppression after sucrose administration; type: in vivo; conditions: for postprandial blood sugar: sucrose
Procedure: (§1) An SD rat, a 5-week-old male, was purchased from RAONBIO, bred in an animal breeding room, and only healthy animals at 6 weeks of age were selected and used in the experiment. After fasting the experimental animals for 24 hours or longer before the experiment, the coffee extract was administered at a concentration of 0.5 g/kg to 2 g/kg body weight of sucrose or starch, and the sample was orally administered using a zonde for oral administration. The administration group was 6 groups, 6 per each group. The blood was collected from the rat tail vein at 30, 60 and 120 minutes after oral administration, and changes in blood sugar concentration in the venous blood were measured using a blood sugar meter ([…]).

SD rat [4] = assay: Postprandial blood sugar rise suppression after starch administration; type: in vivo
Procedure: as §1

[5] = 0.1 g/kg of chlorogenic acid, 30 minutes
[6] = 0.1 g/kg of chlorogenic acid, 60 minutes (first value of 'from 30 minutes to 2 hours')
[7] = 0.1 g/kg of chlorogenic acid, 120 minutes (2 hours)
[8] = 0.5 g/kg of chlorogenic acid, 30 minutes
[9] = 0.5 g/kg of chlorogenic acid, 60 minutes (first value of 'from 30 minutes to 2 hours')
[10] = 0.5 g/kg of chlorogenic acid, 120 minutes (2 hours)

| Compound | inhibitory activity against rat intestinal α-glucosidase [1] | inhibitory activity against α-amylase [2] | effect on postprandial blood sugar rise after sucrose intake (SD rat [3]; in words) | postprandial blood sugar (SD rat [3]; [5]) [mg/dL] | postprandial blood sugar (SD rat [3]; [6]) [mg/dL] | postprandial blood sugar (SD rat [3]; [7]) [mg/dL] | postprandial blood sugar (SD rat [3]; [8]) [mg/dL] | postprandial blood sugar (SD rat [3]; [9]) [mg/dL] | postprandial blood sugar (SD rat [3]; [10]) [mg/dL] | blood sugar (SD rat [4]; [5]) [mg/dL] | blood sugar (SD rat [4]; [6]) [mg/dL] | blood sugar (SD rat [4]; [7]) [mg/dL] | blood sugar (SD rat [4]; [8]) [mg/dL] | blood sugar (SD rat [4]; [9]) [mg/dL] | blood sugar (SD rat [4]; [10]) [mg/dL] |
| --- | --- | --- | --- | --- | --- | --- | --- | --- | --- | --- | --- | --- | --- | --- | --- |
| O=C(O)/C=C/c1ccc(O)c(O)c1 [caffeic acid] | increases in dependence on the concentration |  |  |  |  |  |  |  |  |  |  |  |  |  |  |
| O=C(/C=C/c1ccc(O)c(O)c1)O[C@@H]1C[C@](O)(C(=O)O)C[C@@H](O)[C@H]1O [chlorogenic acid] | increases in dependence on the concentration; also recorded: the most excellent | excellent inhibitory activity | effect of suppressing postprandial blood sugar rise | 184.93 ± 8.24 | 174.00 ± 16.67 | 147.38 ± 10.86 | 131.29 ± 14.47 | 130.64 ± 10.90 | 120.69 ± 13.77 | 239.00 ± 25.86 | 137.33 ± 10.46 | 126.08 ± 10.75 | 225.17 ± 18.37 | 137.23 ± 9.58 | 126.46 ± 12.1 |
| O=C(O)[C@]1(O)C[C@@H](O)[C@@H](O)[C@H](O)C1 [quinic acid] | increases in dependence on the concentration | excellent inhibitory activity |  |  |  |  |  |  |  |  |  |  |  |  |  |
